Results on 8 compounds are retold here after patent publication US8030518B2, “1,4 diamino bicyclic retigabine analogues as potassium channel modulators” (Valeant Pharmaceuticals International, priority 2006, dated 2011).

Some results are limits rather than exact numbers.

The target of experiment [1] is T1, KCNQ2/3 heteromultimers (Rattus norvegicus, UniProt O88943+O88944).
T1 construct: endogenous in cells; host or cells: PC-12 cells differentiated with NGF-7s; no transfection described
Kind of experiment: cell-based Rb+ efflux assay in PC-12 cells. Conditions: Rb+ efflux cellular assay. The protocol:
Compounds of this invention formula were evaluated for activity toward potassium channels in a cell-based Rb^+ efflux assay. This cellular bioassay is believed to faithfully represent the M channel activities identified with KCNQ2/3 heteromultimers. […] Additionally, antiseizure activity in vivo was evaluated in a mouse maximal electroshock seizure (MES) model, and neurotoxicities were determined from a rotorod neurocognitive motor impairment model and open field observation.
PC-12 cells were grown at 37° C. and 5% CO2 in DMEM/F12 Medium (Dulbecco's Modified Eagle Medium with Nutrient Mix F-12, available from Invitrogen of Carlsbad, Calif.), supplemented with 10% horse serum, 5% fetal bovine serum, 2 mM glutamine, 100 U/ml penicillin, and 100 U/ml streptomycin. They were plated in poly-D-lysine-coated 96-well cell culture microplates at a density of 40,000 cells/well and differentiated with 100 ng/ml NGF-7s for 2-5 days. For the assay, the medium was aspirated, and the cells were washed once with 0.2 ml wash buffer (25 mM HEPES, pH 7.4, 150 mM NaCl, 1 mM MgCl2, 0.8 mM NaH2PO4, 2 mM CaCl2). The cells were then loaded with 0.2 ml Rb^+ loading buffer (wash buffer plus 5.4 mM […], 5 mM glucose) and incubated at 37° C. for 2 h. Attached cells were washed quickly three times with buffer (same as Rb^+ loading buffer, but containing 5.4 mM KCl instead of RbCl) to remove extracellular Rb^+. Immediately following the wash, 0.2 ml of depolarization buffer (wash buffer plus 15 mM KCl solution) with or without compounds was added to the cells to activate efflux of potassium ion channels. After incubation for 10 min at room temperature, the supernatant was carefully removed and collected. Cells were lysed by the addition of 0.2 ml of lysis buffer (depolarization buffer plus 0.1% Triton X-100) and the cell lysates were also collected. If collected samples were not immediately analyzed for Rb^+ contents by atomic absorption spectroscopy (see below), they were stored at 4° C. without any negative effects on subsequent Rb^+ analysis.
The concentrations of Rb^+ in the supernatants (Rb^+Sup) and the cell lysates (Rb^+Lys) were quantified using an ICR8000 flame atomic absorption spectrometer (Aurora Biomed Inc., Vancouver, B.C.) under conditions defined by the manufacturer. Samples 0.05 ml in volume were processed automatically from microtiter plates by dilution with an equal volume of Rb^+ sample analysis buffer and injection into an air-acetylene flame. The amount of Rb^+ in the sample was measured by absorption at 780 nm using a hollow cathode lamp as light source and a PMT detector. A calibration curve covering the range 0-5 mg/L Rb^+ in sample analysis buffer was generated with each set of plates. The percent Rb^+ efflux (F) was defined by F=[Rb^+Sup/(Rb^+Sup+Rb^+Lys)]×100%. […] The efflux (F) and compound concentration relationship was plotted to calculate an EC50 value, a compound's concentration for 50% of maximal Rb^+ efflux. Seizure Model Tests

Experiment [2] concerns maximal electroshock seizure. The experiment is described as follows: rat maximal electroshock seizure (MES) test. It is filed as in vivo. The source says: (§1) The MES testing protocol is based on procedures established at the National Institute of Neurological Disorders and Stroke in conjunction with the Anticonvulsant Screening Program (ASP) at the University of Utah (White, H. S., Woodhead, J. H., Wilcox, K. S., Stables, J. P., Kupferberg, H. J and Wolf, H. H. 2002. “General Principles: Discovery and Preclinical Development of Antiepileptic Drugs,” in Antiepileptic Drugs, 5th Edition, R. H. Levy, ed.; R. H. Mattson, B. S. Meldrum, and E. Perucca. Philadelphia, Lippincott Williams & Wilkins.), The goal of the test is to rapid identify and characterize the in vivo anticonvulsant activity of any compounds that have been shown active in PC-12 cellular based Rb^+ efflux assay.
(§2) Adult male CF-1 albino mice (18-25 g, Charles River Laboratories) are […] used for MES screening of compounds. Male Sprague-Dawley albino rats (100-125 g, Charles River Laboratories) are also used to test anticonvulsant compounds. Animals are permitted to rest and recover from transit for at least 48 hr prior to experimentation. Animals are used for AED testing only once. In some instances, the animals can be anesthetized prior to blood collection or whole brain extraction for pharmacokinetic assay. All animals are maintained and handled as outlined in standard animal care guidelines.
In the experiments, testing compounds are prepared as suspensions in 0.5% methyl cellulose (Sigma, Cat # M0512, Viscosity 4000 cP at 20° C.) in water, regardless of solubility. Dry powder compounds are initially ground with a glass rod in a test tube in several drops of methyl cellulose to create a paste and to break down any large chunks. After several minutes of grinding, the volume of the suspension is increased to the final concentration desired. The suspension is then sonicated using a Branson sonicator model 3510 in a water bath at room temperature for 15 minutes. Compound suspensions are further vortexed prior to animal dosing. In some of the cases, DMSO is used to initially solubilize compounds in small volumes and then this solution is added to the 0.5% methyl cellulose solution, in order to create more even and less aggregated compound suspensions. The final concentration of DMSO is 3.75%, an amount with no apparent toxicity or neuroprotective effects in our usual rotarod and MES tests. Methyl cellulose/DMSO compound suspensions are identically prepared for intraperitoneally (i.p.)dosing to mice or orally (p.o.) dosing to rats. […]
A Rodent Electroconvulsive Stimulator (Model 200, Hamit-Darvin-Freesh, Snow Canyon Clinic, Ivins, Utah) is used for MES testing. […] Animals are monitored for hind limb tonic extension as the end point for this test. Current delivery is recorded as a measure of overall seizure-induction potential. […]

The test system of experiment [3] is maximal electroshock seizure. Kind of experiment: mouse maximal electroshock seizure (MES) test. The settings on record: ip dosing of 12.5 mg/kg. It is filed as in vivo. Also on record: key: A: active; B: inactive.
From the text: as §1, §2
In the experiments, testing compounds are prepared as suspensions in 0.5% methyl cellulose (Sigma, Cat # M0512, Viscosity 4000 cP at 20° C.) in water, regardless of solubility. Dry powder compounds are initially ground with a glass rod in a test tube in several drops of methyl cellulose to create a paste and to break down any large chunks. After several minutes of grinding, the volume of the suspension is increased to the final concentration desired. The suspension is then sonicated using a Branson sonicator model 3510 in a water bath at room temperature for 15 minutes. Compound suspensions are further vortexed prior to animal dosing. In some of the cases, DMSO is used to initially solubilize compounds in small volumes and then this solution is added to the 0.5% methyl cellulose solution, in order to create more even and less aggregated compound suspensions. The final concentration of DMSO is 3.75%, an amount with no apparent toxicity or neuroprotective effects in our usual rotarod and MES tests. Methyl cellulose/DMSO compound suspensions are identically prepared for intraperitoneally (i.p.)dosing to mice or orally (p.o.) dosing to rats.
Initially the animals are weighed with an electronic scale and then marked. Data recording sheets are generated for each compound assessment. Mice or rats are dosed with the compound suspension at 0.01 mL/g of body weight. The typical injection volume range is between 180-250 μl for mice. Compounds are dosed by i.p. to mice using a 25 or 22 gauge needle, depending on the viscosity of the suspension. Rats are p.o. dosed using a flexible feeding tube, typically starting at a compound dose of 5 mg/kg.
A Rodent Electroconvulsive Stimulator (Model 200, Hamit-Darvin-Freesh, Snow Canyon Clinic, Ivins, Utah) is used for MES testing. A 60-Hz alternating current (50 mA for mice; 150 mA for rats) is delivered for 0.2 seconds through corneal electrodes to the mice. A drop of 0.5% tetracaine (Sigma, Cat. # T-7508) solution is placed on the eye prior to current delivery. The electrodes are subsequently placed gently onto the eyes of the animal and the electrical shock is initiated by triggering through a foot-pedal activator. The animals are restrained by hand and gently released as the shock is delivered and the seizure commences. Animals are monitored for hind limb tonic extension as the end point for this test. Current delivery is recorded as a measure of overall seizure-induction potential. Electrical current delivery can vary from approximately 30-55 mA (mice) or 90-160 mA (rats) depending on impedance in the animal and quality of the current delivery (i.e. correct placement of the electrodes on the cornea). […]

Compound `Cc1cc2c(c(C)c1NC(=O)CC(C)(C)C)CCC2Nc1ccc(F)cc1` (centres unmarked) [Example 11, N-(1-(4-fluorophenylamino)-4,6-dimethyl-2,3-dihydro-1H-inden-5-yl)-3,3-dimethylbutanamide] gave an EC50 in experiment [1] of 1 to 10 nM. For the same compound, the ED50 in experiment [2] was less than 20 mg/kg. In addition, the “Mouse MES test” value in experiment [3] is given as “A”.
On the same counts, the results for `Cc1cc2c(c(C)c1NC(=O)CC(C)(C)C)CCC2Nc1ccc(C(F)(F)F)cc1` (single isomer, unassigned; (-)) [Example 15, (−) N-(4,6-dimethyl-1-(4-(trifluoromethyl)phenylamino)-2,3-dihydro-1H-inden-5-yl)-3,3-dimethylbutanamide] are not above 1 nM, less than 20 mg/kg and “A”.
The matching figures for `Cc1cc2c(c(C)c1NC(=O)CC(C)(C)C)CCC2Nc1ccc(F)cc1` (single isomer, unassigned; (-)) [Example 12, (−) N-(1-(4-fluorophenylamino)-4,6-dimethyl-2,3-dihydro-1H-inden-5-yl)-3,3-dimethylbutanamide]: not above 1 nM, less than 20 mg/kg and “A”.
`Cc1cc2c(c(C)c1NC(=O)CC(C)(C)C)CCC2Nc1ccc(C(F)(F)F)cc1` (single isomer, unassigned; (+)) [Example 16, (+) N-(4,6-dimethyl-1-(4-(trifluoromethyl)phenylamino)-2,3-dihydro-1H-inden-5-yl)-3,3-dimethylbutanamide] registered an EC50 in experiment [1] of 1 to 10 nM. Further, in experiment [3], the “Mouse MES test” value is “A”.
The compound `Cc1cc2c(c(C)c1NC(=O)CC(C)(C)C)CCC2Nc1cc(F)cc(F)c1` (centres unmarked) [Example 22, N-(4,6-dimethyl-1-(3,5-difluorophenylamino)-2,3-dihydro-1H-inden-5-yl)-3,3-dimethylbutanamide] returned an EC50 in experiment [1] of 1 to 10 nM. The “Mouse MES test” value in experiment [3] is recorded as “A”.
On the same counts, the results for `Cc1cc2c(c(C)c1NC(=O)CC(C)(C)C)CCC2Nc1ccc(Cl)cc1` (centres unmarked) [Example 17, N-(4,6-dimethyl-1-(4-chlorophenylamino)-2,3-dihydro-1H-inden-5-yl)-3,3-dimethylbutanamide] are not above 1 nM and “A”.
For `Cc1cc2c(c(C)c1NC(=O)CC(C)(C)C)CCC2Nc1ccc(C(F)(F)F)cc1` (centres unmarked) [Example 14, N-(4,6-dimethyl-1-(4-(trifluoromethyl)phenylamino)-2,3-dihydro-1H-inden-5-yl)-3,3-dimethylbutanamide], the EC50 in experiment [1] fell in the range of 1 to 10 nM. This compound displayed an ED50 in experiment [2] of less than 20 mg/kg. In experiment [3], the “Mouse MES test” value was “A”.
In turn, `Cc1cc2c(c(C)c1NC(=O)CC(C)(C)C)CCCC2Nc1ccc(C(F)(F)F)cc1` (centres unmarked) [Example 5, N-(1,3-dimethyl-5-(4-(trifluoromethyl)phenylamino)-5,6,7,8-tetrahydronaphthalen-2-yl)-3,3-dimethylbutanamide] returned an EC50 in experiment [1] of 1 to 10 nM. In addition, the “Mouse MES test” value in experiment [3] is on record as “A”.
